Laboratory results: patent US20080318943A1, “Compounds and Uses Thereof - 848” (ASTRAZENECA AB, priority 2007, published 2008)
pKi: −log10 of the molar value.

Tests used:
[1] = biological target: T1, GABAA receptor α1β2γ2 (Homo sapiens, UniProt P14867+P18507); experiment: Two-electrode voltage-clamp potentiation of GABA EC10 current in Xenopus oocytes, GABAA1; format: cell-based; details: percentage potentiation of GABA EC10 current divided by that of diazepam
T1 construct: expressed in transfected cells; host or cells: Xenopus laevis oocytes injected with cRNA
Procedure, shortened: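 Human GABAA receptors expressed in Xenopus oocytes by cRNA injection (α:β:γ molar ratio ~1:1:10 for α1β2γ2, 1:1:1 for α2β3γ2), recorded 2-10 days later by two-electrode voltage clamp at −60 mV in ND-96, pH 7.5. Modulator preapplied 30 s before GABA at per-oocyte EC10. Peak-current percent potentiation over GABA alone, normalised to diazepam.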

[2] = biological target: T2, GABAA receptor α2β3γ2 (Homo sapiens, UniProt P18507+P47869); experiment: Two-electrode voltage-clamp potentiation of GABA EC10 current in Xenopus oocytes, GABAA2; format: cell-based; details: percentage potentiation of GABA EC10 current divided by that of diazepam
T2 construct: expressed in transfected cells; host or cells: Xenopus laevis oocytes injected with cRNA
Experimental: GABAA receptors were heterologously expressed in Xenopus oocytes by injecting cRNA corresponding to human α1, α2, α3, α5, β2, P3 and γ2 subunits of the GABAA receptor genes. The specific subunit combinations (subtypes) were as follows: α1β2γ2, α2β3γ2, α3β3γ2, and α5β3γ2. The EC10 of GABA is approximated for each cell. Stability of GABA-mediated (EC10) current is established. Modulatory effect of test compound is determined and compared across subtypes. […] Thus, the assay can characterize modulatory effects and determine subtype selectivity of test compounds on major subtypes of GABAA receptors.
Xenopus laevis frogs (Xenopus I, Kalamazoo, Mich.) were anesthetized using 0.15% tricaine. Surgically removed ovarian lobes were teased out in OR2 solution (82 NaCl, 2.5 KCl, 5 HEPES, 1.5 NaH2PO4, 1 MgCl2, 0.1 EDTA, in mM, pH 7.4). The oocytes were defolliculated by incubation in 25 mL OR2 containing 0.2% collagenase 1A (SIGMA) two times for about 60 minutes on a platform shaker and stored in Leibovitz's L-15 medium. Oocytes were injected the following day in 0.5× Leibovitz's L-15 medium containing […] gentamycin, 10 units/ml penicillin, and […] streptomycin.
Capped cRNAs from the linearized vectors containing human α1, β2 and γ2 subunits of the GABAA receptor genes were mixed in ratio of […]. Oocytes were injected with 25-50 nL of mixed RNA with an appx molar ratio for α1, β2, and γ2 as 1:1:10. Oocyte recordings were done 2-10 days after injection. The same methods apply to subtypes derived from α2β3γ2, α3β3γ2, and α5β3γ2, except for 1:1:1 ratio was used for α, β, and γ subunits.
All measurements were done in a medium containing ND-96 (96 NaCl, 2 KCl, 1.8 CaCl2.2H2O, 1 MgCl2.6H2O, 5 HEPES, in mM, pH 7.5). Two-electrode voltage-clamp recording was carried out using OpusXpress amplifier (Axon Instruments, Foster City, Calif.), which allows simultaneous recording from 8 oocytes. Oocytes were impaled with two electrodes of 1-2 MΩ tip resistance when filled with 3M KCl. Recordings were begun when membrane potential became stable at potentials negative to −50-−60 mV. Membrane potential was held at −60 mV. […] The concentration of GABA corresponded to the EC10 value calculated for each oocyte. The modulator pulses started 30 s before the GABA pulse so as to allow preincubation with the modulator. A set of 3 pulses with just GABA without modulator was given prior to the modulator-containing pulses to define the baseline GABA response. Two oocytes per each experiment were dedicated to observe the effect of diazepam on GABA response to ensure the presence of γ2 subunit in the GABAA pentameric complex, which imparts diazepam sensitivity to the complex.
Current amplitude (i) was measured from baseline to peak using Clampfit (Axon Inst., Foster City, Calif.). Potentiation was calculated as percent change from the baseline GABA current flux 100×(imod/icontrol)−1) where imod=current mediated by modulator+GABA and icontrol=current mediated by GABA alone. […] Similarly, a value of −50% potentiation means the presence of modulator caused a 50% decrease in the control current. Various other data shown here were fitted and plotted using GraphPad Prism (GraphPad Software, Inc. San Diego, Calif.). The percentage potentiation was converted to relative potentiation by dividing it with percentage potentiation value obtained from the same assay with diazepam as a control.

[3] = biological target: T3, GABAA2 receptors (α2, β3, γ2 receptor subunits transfected into Sf9 cells) (Homo sapiens, UniProt P18507+P47869); experiment: GABAA2 Binding Method ([3H]-Flunitrazepam displacement); details: [3H]-Flunitrazepam ~2 nM, α2β3γ2 Sf9 membranes, 1 hr at 4° C.
T3 construct: host or cells: Sf9 cells (membranes)
Procedure, shortened: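 Membranes from Sf9 cells expressing α2β3γ2 GABAA receptors incubated with ~2 nM (final) [3H]-flunitrazepam and test compound 1 h at 4 °C, then filtered on GF/B plates with cold-buffer washes. Flumazenil-defined controls; percent of control, IC50 and Ki calculated.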

T2 sequence (P47869 29-451): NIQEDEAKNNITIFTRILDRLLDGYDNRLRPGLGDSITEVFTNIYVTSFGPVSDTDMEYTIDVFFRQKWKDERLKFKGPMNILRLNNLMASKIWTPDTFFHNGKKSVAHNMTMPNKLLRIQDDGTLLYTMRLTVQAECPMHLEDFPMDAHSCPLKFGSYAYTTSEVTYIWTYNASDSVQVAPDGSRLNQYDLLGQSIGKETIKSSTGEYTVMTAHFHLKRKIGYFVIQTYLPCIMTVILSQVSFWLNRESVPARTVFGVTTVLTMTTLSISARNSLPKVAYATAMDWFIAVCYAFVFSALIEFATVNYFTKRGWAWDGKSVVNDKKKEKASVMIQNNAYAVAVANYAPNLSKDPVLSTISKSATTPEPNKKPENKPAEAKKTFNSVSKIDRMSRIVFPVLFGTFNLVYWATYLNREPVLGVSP
T2 sequence (P28472 26-473 partner): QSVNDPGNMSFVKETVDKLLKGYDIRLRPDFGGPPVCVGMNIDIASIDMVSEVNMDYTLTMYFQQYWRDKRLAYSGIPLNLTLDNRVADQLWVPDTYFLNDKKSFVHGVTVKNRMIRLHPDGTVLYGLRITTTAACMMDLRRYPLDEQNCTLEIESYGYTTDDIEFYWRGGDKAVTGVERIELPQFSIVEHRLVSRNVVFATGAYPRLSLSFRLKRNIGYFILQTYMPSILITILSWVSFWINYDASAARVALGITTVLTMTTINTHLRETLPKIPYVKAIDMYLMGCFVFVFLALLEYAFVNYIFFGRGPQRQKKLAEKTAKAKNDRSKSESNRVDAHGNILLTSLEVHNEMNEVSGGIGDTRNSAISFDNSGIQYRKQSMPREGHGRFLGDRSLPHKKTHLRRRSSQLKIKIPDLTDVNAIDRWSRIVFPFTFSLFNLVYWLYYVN
T2 sequence (P18507 40-475): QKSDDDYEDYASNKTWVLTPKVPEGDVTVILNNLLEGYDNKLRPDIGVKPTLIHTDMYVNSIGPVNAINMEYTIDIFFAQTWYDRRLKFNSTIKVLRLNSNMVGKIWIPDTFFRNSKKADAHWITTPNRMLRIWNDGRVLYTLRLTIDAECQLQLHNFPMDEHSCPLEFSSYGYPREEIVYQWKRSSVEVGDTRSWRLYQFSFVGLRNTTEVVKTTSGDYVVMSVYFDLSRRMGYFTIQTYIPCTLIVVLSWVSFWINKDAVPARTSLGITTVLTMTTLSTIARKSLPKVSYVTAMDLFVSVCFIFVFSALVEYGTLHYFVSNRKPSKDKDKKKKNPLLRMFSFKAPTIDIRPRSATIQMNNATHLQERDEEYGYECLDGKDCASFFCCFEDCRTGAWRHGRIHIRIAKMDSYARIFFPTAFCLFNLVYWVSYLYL
T3 sequence (P47869 29-451): as the sequence (P47869 29-451) above
T3 sequence (P28472 26-473 partner): as the sequence (P28472 26-473 partner) above
T3 sequence (P18507 40-475): as the sequence (P18507 40-475) above
T1 sequence (P14867 28-456): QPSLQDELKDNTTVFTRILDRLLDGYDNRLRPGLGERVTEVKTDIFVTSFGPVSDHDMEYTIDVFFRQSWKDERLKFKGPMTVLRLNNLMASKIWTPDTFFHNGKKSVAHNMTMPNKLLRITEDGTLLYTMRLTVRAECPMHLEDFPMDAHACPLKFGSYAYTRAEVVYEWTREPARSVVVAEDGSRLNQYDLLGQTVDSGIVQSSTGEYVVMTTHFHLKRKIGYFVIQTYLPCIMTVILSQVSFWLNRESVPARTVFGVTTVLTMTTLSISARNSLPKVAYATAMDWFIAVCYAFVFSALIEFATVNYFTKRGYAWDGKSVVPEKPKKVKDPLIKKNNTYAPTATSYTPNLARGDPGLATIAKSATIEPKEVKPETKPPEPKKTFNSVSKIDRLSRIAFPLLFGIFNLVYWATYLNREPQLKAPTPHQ
T1 sequence (P47870 25-512 partner limits assumed): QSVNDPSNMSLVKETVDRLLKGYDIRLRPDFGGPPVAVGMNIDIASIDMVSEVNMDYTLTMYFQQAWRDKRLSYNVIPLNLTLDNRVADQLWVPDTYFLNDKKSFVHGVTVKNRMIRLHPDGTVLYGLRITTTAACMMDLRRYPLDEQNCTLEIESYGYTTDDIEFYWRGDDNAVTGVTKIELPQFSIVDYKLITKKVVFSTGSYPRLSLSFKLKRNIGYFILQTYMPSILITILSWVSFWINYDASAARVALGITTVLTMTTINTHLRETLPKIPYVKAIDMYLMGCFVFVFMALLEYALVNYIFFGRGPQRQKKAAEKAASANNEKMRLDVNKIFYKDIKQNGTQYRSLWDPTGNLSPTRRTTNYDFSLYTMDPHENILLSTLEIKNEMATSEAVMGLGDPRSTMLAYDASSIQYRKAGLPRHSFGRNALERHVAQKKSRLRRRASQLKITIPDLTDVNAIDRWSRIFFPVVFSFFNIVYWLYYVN
T1 sequence (P18507 40-475): as the sequence (P18507 40-475) above

| SMILES | Relative Potentiation for GABAA1 [1] | Relative Potentiation for GABAA2 [2] | pKi [3] |
| --- | --- | --- | --- |
| COc1cccc(C#N)c1-c1cccc2c(N)c3c(nc12)CN(C1CCC1)C3=O [2-(9-Amino-2-cyclobutyl-1-oxo-2,3-dihydro-1H-pyrrolo[3,4-b]quinolin-5-yl)-3-methoxybenzonitrile] | −0.043 | 0.21 | 8.26 |
| N#Cc1ccc(F)cc1-c1cccc2c(N)c3c(nc12)CN(C1CCC1)C3=O [2-(9-Amino-2-cyclobutyl-1-oxo-2,3-dihydro-1H-pyrrolo[3,4-b]quinolin-5-yl)-4-fluorobenzonitrile] | −0.02 | 0.21 | 8.21 |
| N#Cc1cc(F)ccc1-c1cccc2c(N)c3c(nc12)CN(C1CCC1)C3=O [2-(9-Amino-2-cyclobutyl-1-oxo-2,3-dihydro-1H-pyrrolo[3,4-b]quinolin-5-yl)-5-fluorobenzonitrile] | −0.024 | 0.11 | 8.38 |
| COc1cccc(-c2cccc3c(N)c4c(nc23)CN(C2CCC2)C4=O)c1C#N [2-(9-Amino-2-cyclobutyl-1-oxo-2,3-dihydro-1H-pyrrolo[3,4-b]quinolin-5-yl)-6-methoxybenzonitrile] | −0.016 | 0.18 | 9.04 |
| N#Cc1ccccc1-c1cccc2c(N)c3c(nc12)CN(C1CCCC1)C3=O [2-(9-Amino-2-cyclopentyl-1-oxo-2,3-dihydro-1H-pyrrolo[3,4-b]quinolin-5-yl)-benzonitrile] | 0.062 | 0.27 | 8.24 |
| N#Cc1ccccc1-c1cccc2c(N)c3c(nc12)CN(C1CC1)C3=O [2-(9-Amino-2-cyclopropyl-1-oxo-2,3-dihydro-1H-pyrrolo[3,4-b]quinolin-5-yl)-benzonitrile] | −0.064 | 0.087 | 7.79 |
| CCCN1Cc2nc3c(-c4ccccc4C#N)cccc3c(N)c2C1=O [2-(9-amino-1-oxo-2-propyl-2,3-dihydro-1H-pyrrolo[3,4-b]quinolin-5-yl)benzonitrile] | 0.15 | 0.21 | 7.51 |
| N#Cc1cncc(-c2cccc3c(N)c4c(nc23)CN(C2CCC2)C4=O)c1 [5-(9-Amino-2-cyclobutyl-1-oxo-2,3-dihydro-1H-pyrrolo[3,4-b]quinolin-5-yl)-nicotinonitrile] | 0.048 | 0.21 | 8.23 |
| N#Cc1ccc(-c2cccc3c(N)c4c(nc23)CN(C2CCC2)C4=O)cn1 [5-(9-Amino-2-cyclobutyl-1-oxo-2,3-dihydro-1H-pyrrolo[3,4-b]quinolin-5-yl)-pyridine-2-carbonitrile] | −0.038 | 0.17 | 7.81 |
| N#Cc1ccc(-c2cccc3c(N)c4c(nc23)CN(C2CCC2)C4=O)nc1 [6-(9-Amino-2-cyclobutyl-1-oxo-2,3-dihydro-1H-pyrrolo[3,4-b]quinolin-5-yl)-nicotinonitrile] | 0.005 | 0.15 | 8.62 |
| COc1ccc(CN2Cc3nc4c(-c5c(F)cccc5OC)cccc4c(N)c3C2=O)cc1Cl [9-Amino-2-(3-chloro-4-methoxybenzyl)-5-(2-fluoro-6-methoxyphenyl)-2,3-dihydropyrrolo[3,4-b]quinolin-1-one] | 0.088 | 0.15 | 7.99 |
| Cc1cccc(-c2cccc3c(N)c4c(nc23)C(O)N(C2CCC2)C4=O)n1 (stereo not drawn) [9-Amino-2-cyclobutyl-3-hydroxy-5-(6-methylpyridin-2-yl)-2,3-dihydropyrrolo[3,4-b]quinolin-1-one] | −0.052 | 0.1 | 8.12 |
| Cc1nn(C)cc1-c1cccc2c(N)c3c(nc12)CN(C1CCC1)C3=O [9-Amino-2-cyclobutyl-5-(1,3-dimethyl-1H-pyrazol-4-yl)-2,3-dihydropyrrolo[3,4-b]quinolin-1-one] | 0.017 | 0.43 | 8.41 |
| Cn1cc(-c2cccc3c(N)c4c(nc23)CN(C2CCC2)C4=O)cn1 [9-Amino-2-cyclobutyl-5-(1-methyl-1H-pyrazol-4-yl)-2,3-dihydropyrrolo[3,4-b]quinolin-1-one] | 0.01 | 0.18 | 8.42 |
| COc1ncc(-c2c(F)ccc3c(N)c4c(nc23)CN(C2CCC2)C4=O)c(OC)n1 [9-Amino-2-cyclobutyl-5-(2,4-dimethoxypyrimidin-5-yl)-6-fluoro-2,3-dihydropyrrolo[3,4-b]quinolin-1-one] | 0.11 | 0.4 | 9.02 |
| COc1cnc(OC)c(-c2cccc3c(N)c4c(nc23)CN(C2CCC2)C4=O)c1 [9-Amino-2-cyclobutyl-5-(2,5-dimethoxypyridin-3-yl)-2,3-dihydropyrrolo[3,4-b]quinolin-1-one] | 0.087 | 0.47 | 8.47 |
| COc1cc(F)c(-c2cccc3c(N)c4c(nc23)CN(C2CCC2)C4=O)c(F)c1 [9-Amino-2-cyclobutyl-5-(2,6-difluoro-4-methoxyphenyl)-2,3-dihydropyrrolo[3,4-b]quinolin-1-one] | −0.023 | 0.13 | 8.84 |
| Nc1c2c(nc3c(-c4ccc(F)nc4F)cccc13)CN(C1CCC1)C2=O [9-Amino-2-cyclobutyl-5-(2,6-difluoropyridin-3-yl)-2,3-dihydropyrrolo[3,4-b]quinolin-1-one] | 0.033 | 0.21 | 9.14 |
| COc1cccc(-c2cccc3c(N)c4c(nc23)CN(C2CCC2)C4=O)c1F [9-Amino-2-cyclobutyl-5-(2-fluoro-3-methoxyphenyl)-2,3-dihydropyrrolo[3,4-b]quinolin-1-one] | 0.062 | 0.26 | 8.38 |
| COc1ccc(F)c(-c2cccc3c(N)c4c(nc23)CN(C2CCC2)C4=O)c1 [9-Amino-2-cyclobutyl-5-(2-fluoro-5-methoxyphenyl)-2,3-dihydropyrrolo[3,4-b]quinolin-1-one] | 0.1 | 0.29 | 8.87 |
| Cc1ccc(-c2cccc3c(N)c4c(nc23)CN(C2CCC2)C4=O)c(F)n1 [9-Amino-2-cyclobutyl-5-(2-fluoro-6-methylpyridin-3-yl)-2,3-dihydropyrrolo[3,4-b]quinolin-1-one] | −0.017 | 0.3 | 8.37 |
| Nc1c2c(nc3c(-c4cccnc4F)cccc13)CN(C1CCC1)C2=O [9-Amino-2-cyclobutyl-5-(2-fluoropyridin-3-yl)-2,3-dihydropyrrolo[3,4-b]quinolin-1-one] | −0.002 | 0.24 | 8.59 |
